Results published in patent US20250302832A1, “PYRAZINE DERIVATIVES AND USES THEREOF” (FOGHORN THERAPEUTICS INC., priority 2022, published 2025).

What was measured:
[1] = molecular target: T1, HiBit-BRG1 fusion protein (Homo sapiens, UniProt P51532); assay: HiBiT-BRG1 cell-based degradation assay (Nano-Glo HiBiT lytic detection, 24 h); conditions: HeLa cell line expressing HiBit-BRG1 and LgBit; for Dmax: read-out: BRG1 HiBit Degradation Maximum (%); for DC50: read-out: BRMG1 HiBit Degradation IC50
T1 construct: expressed in transfected cells
Procedure: Procedure: A stable HeLa cell line expressing HiBiT-BRM was generated. On day 0, 5000 cells were seeded in 40 μL of media into each well of 384-well cell culture plates. […] Subsequently plates were incubated for 24 h in a standard tissue culture incubator and equilibrated at room temperature for 15 minutes. Nano-GB HiBiT Lytic Detection System (Promega N3050) reagent was freshly prepared and 20 ul was added to each well. Upon addition of this LgBit-containing reagent, the HiBiT and LgBiT proteins associate to form the luminescent NanoBiT luciferase. The plates were shaken for 10 minutes at room temperature and the bioluminescence read using an EnVision plate reader (PerkinElmer).
For measurement of BRG1 degradation, a stable HeLa cell line expressing HiBit-BRG1 and LgBit was generated. The same protocol as above was then followed.
(§1) The degradation % was calculated using the following formula: % degradation=100%−100%×(Lumsample−LuMLC)/(LuMHC−LuMLC). DMSO treated cells are employed as High Control (HC) and 2 μM of a known BRM/BRG1 degrader standard treated cells are employed as Low Control (LC).

HiBit-BRM fusion protein = molecular target: T2, HiBit-BRM fusion protein (Homo sapiens, UniProt P51531); assay: HiBiT-BRM cell-based degradation assay (Nano-Glo HiBiT lytic detection, 24 h); conditions: HeLa cell line expressing HiBiT-BRM; for DC50: read-out: BRM HiBit Degradation IC50
T2 construct: expressed in transfected cells
Procedure: Procedure: A stable HeLa cell line expressing HiBiT-BRM was generated. On day 0, 5000 cells were seeded in 40 μL of media into each well of 384-well cell culture plates. On day 1, cells were treated with 120 nL DMSO or 120 nL of 3-fold serially DMSO-diluted compounds (10 points in duplicate with 30 μM as final top dose). Subsequently plates were incubated for 24 h in a standard tissue culture incubator and equilibrated at room temperature for 15 minutes. Nano-GB HiBiT Lytic Detection System (Promega N3050) reagent was freshly prepared and 20 ul was added to each well. Upon addition of this LgBit-containing reagent, the HiBiT and LgBiT proteins associate to form the luminescent NanoBiT luciferase. The plates were shaken for 10 minutes at room temperature and the bioluminescence read using an EnVision plate reader (PerkinElmer).
as §1

T2 sequence (P51531 whole entry, the tested form may be a part): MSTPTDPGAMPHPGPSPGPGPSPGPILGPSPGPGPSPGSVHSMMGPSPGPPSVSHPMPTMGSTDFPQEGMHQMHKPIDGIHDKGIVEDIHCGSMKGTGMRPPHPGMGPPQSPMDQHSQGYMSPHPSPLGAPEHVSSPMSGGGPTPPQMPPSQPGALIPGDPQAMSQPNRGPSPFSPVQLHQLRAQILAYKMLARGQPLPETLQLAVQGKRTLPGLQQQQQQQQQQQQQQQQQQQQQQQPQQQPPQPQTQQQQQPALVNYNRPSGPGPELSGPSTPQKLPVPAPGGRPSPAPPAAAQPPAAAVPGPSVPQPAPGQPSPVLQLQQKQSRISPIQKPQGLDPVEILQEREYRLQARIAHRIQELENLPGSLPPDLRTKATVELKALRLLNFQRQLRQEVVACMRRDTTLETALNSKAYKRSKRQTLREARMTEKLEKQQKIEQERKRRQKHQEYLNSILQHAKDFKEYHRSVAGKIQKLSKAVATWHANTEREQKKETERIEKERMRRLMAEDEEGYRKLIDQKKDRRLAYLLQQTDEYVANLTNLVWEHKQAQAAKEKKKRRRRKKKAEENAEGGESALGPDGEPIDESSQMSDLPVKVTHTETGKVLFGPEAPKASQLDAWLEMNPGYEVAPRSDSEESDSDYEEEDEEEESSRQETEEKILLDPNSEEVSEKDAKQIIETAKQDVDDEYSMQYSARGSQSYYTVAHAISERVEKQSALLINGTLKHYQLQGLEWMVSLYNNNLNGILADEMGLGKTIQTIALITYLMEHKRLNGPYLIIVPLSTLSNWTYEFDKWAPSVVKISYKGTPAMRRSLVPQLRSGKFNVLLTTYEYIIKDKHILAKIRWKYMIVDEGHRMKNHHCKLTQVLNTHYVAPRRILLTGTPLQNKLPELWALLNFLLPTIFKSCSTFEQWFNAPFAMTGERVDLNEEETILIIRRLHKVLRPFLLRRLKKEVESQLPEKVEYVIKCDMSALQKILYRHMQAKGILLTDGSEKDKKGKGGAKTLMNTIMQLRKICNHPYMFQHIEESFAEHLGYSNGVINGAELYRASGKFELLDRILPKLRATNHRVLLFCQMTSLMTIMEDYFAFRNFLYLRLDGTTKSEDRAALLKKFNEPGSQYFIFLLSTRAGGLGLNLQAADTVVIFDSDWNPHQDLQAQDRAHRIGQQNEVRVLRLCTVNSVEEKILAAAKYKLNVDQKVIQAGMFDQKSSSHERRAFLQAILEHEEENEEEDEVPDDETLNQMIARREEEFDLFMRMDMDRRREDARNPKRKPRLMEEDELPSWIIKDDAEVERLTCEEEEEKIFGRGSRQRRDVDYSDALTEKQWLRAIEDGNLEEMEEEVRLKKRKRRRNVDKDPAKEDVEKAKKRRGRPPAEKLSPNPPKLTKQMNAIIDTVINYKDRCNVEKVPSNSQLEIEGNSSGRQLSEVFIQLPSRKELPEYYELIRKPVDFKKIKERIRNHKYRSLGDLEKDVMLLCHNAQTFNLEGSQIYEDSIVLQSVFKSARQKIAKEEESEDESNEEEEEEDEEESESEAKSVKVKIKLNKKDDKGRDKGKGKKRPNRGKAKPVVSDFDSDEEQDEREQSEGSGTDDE
T1 sequence (P51532 whole entry, the tested form may be a part): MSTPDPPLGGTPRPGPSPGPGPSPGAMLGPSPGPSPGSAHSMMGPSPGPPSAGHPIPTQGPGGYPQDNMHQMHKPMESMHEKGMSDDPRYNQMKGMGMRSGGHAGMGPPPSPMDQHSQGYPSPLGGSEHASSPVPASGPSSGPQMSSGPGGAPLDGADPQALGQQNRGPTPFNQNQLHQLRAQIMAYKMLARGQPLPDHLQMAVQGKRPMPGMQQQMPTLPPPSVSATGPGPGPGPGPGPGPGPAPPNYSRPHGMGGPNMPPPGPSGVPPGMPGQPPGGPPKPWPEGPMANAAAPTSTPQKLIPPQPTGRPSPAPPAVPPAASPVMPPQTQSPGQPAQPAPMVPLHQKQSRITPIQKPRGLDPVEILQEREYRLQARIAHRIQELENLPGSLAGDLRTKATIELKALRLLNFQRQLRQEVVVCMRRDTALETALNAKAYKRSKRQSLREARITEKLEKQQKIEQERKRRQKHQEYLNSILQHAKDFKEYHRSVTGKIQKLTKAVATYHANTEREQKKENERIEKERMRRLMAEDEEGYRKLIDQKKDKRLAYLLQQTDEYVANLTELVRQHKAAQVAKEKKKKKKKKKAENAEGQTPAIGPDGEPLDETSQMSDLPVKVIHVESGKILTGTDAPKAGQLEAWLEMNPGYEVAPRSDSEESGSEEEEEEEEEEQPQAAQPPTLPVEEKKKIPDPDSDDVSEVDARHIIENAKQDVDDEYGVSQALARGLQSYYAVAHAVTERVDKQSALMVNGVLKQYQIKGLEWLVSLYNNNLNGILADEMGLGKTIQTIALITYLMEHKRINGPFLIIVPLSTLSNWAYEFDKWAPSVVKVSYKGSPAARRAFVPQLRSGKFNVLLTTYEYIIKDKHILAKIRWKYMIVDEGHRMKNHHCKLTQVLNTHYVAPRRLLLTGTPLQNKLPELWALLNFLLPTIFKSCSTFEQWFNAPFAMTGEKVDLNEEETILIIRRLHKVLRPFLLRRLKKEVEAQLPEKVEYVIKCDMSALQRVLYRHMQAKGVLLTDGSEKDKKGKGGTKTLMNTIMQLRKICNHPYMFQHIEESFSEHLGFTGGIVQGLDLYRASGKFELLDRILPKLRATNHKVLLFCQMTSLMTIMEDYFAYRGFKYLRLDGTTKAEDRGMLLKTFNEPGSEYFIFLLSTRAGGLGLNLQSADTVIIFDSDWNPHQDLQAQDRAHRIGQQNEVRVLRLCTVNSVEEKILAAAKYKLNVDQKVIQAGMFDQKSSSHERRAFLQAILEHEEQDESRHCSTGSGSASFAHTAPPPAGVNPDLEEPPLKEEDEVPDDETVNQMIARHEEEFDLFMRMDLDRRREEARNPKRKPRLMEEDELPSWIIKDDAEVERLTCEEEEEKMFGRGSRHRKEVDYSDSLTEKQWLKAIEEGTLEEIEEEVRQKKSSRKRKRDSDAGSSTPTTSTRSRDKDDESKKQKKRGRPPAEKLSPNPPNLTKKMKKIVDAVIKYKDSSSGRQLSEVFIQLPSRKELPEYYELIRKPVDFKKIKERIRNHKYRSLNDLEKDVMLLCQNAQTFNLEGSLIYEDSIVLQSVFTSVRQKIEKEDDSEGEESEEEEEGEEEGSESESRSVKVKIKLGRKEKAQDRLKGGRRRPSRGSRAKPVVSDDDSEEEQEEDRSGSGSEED

Dmax [1] [%]	DC50 (HiBit-BRM fusion protein) [nM]	DC50 [1] [nM]	Structure (SMILES)	BRM HiBit Degradation Maximum (%) (HiBit-BRM fusion protein)
< 50	< 10		Cc1ncsc1-c1ccc([C@H](C)NC(=O)[C@@H]2C[C@@H](O)CN2C(=O)[C@@H](c2cc(-c3cnc(N4CCC(c5cc6nnc(-c7ccccc7O)cc6n5C5CC5)CC4)nc3)no2)C(C)C)cc1 [Compound 25, (2S,4R)-1-[(2R)-2-[3-(2-{4-[5-cyclopropyl-3-(2-hydroxyphenyl)pyrrolo[3,2-c]pyridazin-6-yl]piperidin-1-yl}pyrimidin-5-yl)-1,2-oxazol-5-yl]-3-methylbutanoyl]-4-hydroxy-N-[(1S)-1-[4-(4-methyl-1,3-thiazol-5-yl)phenyl]ethyl]pyrrolidine-2-carboxamide]	A (“A” indicates maximum degradation ≥75%)
< 50			Cc1ncsc1-c1ccc([C@H](C)NC(=O)[C@@H]2C[C@@H](O)CN2C(=O)[C@H](c2cc(-c3cnc(N4CCC(c5cc6nnc(-c7ccccc7O)cc6n5C5CC5)CC4)nc3)no2)C(C)C)cc1 [Compound 26, (2S,4R)-1-[(2S)-2-[3-(2-{4-[5-cyclopropyl-3-(2-hydroxyphenyl)pyrrolo[3,2-c]pyridazin-6-yl]piperidin-1-yl}pyrimidin-5-yl)-1,2-oxazol-5-yl]-3-methylbutanoyl]-4-hydroxy-N-[(1S)-1-[4-(4-methyl-1,3-thiazol-5-yl)phenyl]ethyl]pyrrolidine-2-carboxamide]	C (“C” indicates maximum degradation <50%)
> 75	< 10	> 10	Cc1ncsc1-c1ccc([C@H](C)NC(=O)[C@@H]2C[C@@H](O)CN2C(=O)[C@@H](c2cc(OCCN3CCN(c4cc5nnc(-c6ccccc6O)cc5n4C)CC3)no2)C(C)C)cc1 [Compound 27, (2S,4R)-4-hydroxy-1-[(2R)-2-[3-(2-{4-[3-(2-hydroxyphenyl)-5-methylpyrrolo[3,2-c]pyridazin-6-yl]piperazin-1-yl}ethoxy)-1,2-oxazol-5-yl]-3-methylbutanoyl]-N-[(1S)-1-[4-(4-methyl-1,3-thiazol-5-yl)phenyl]ethyl]pyrrolidine-2-carboxamide]	A (“A” indicates maximum degradation ≥75%)
> 75	< 10	< 10	Cc1ncsc1-c1ccc([C@H](C)NC(=O)[C@@H]2C[C@@H](O)CN2C(=O)[C@@H](c2cc(-c3cnc(N4CCN(c5cc6nnc(-c7ccccc7O)cc6n5C)CC4)nc3)no2)C(C)C)cc1 [Compound 28, (2S,4R)-4-hydroxy-1-[(2R)-2-[3-(2-{4-[3-(2-hydroxyphenyl)-5-methylpyrrolo[3,2-c]pyridazin-6-yl]piperazin-1-yl}pyrimidin-5-yl)-1,2-oxazol-5-yl]-3-methylbutanoyl]-N-[(1S)-1-[4-(4-methyl-1,3-thiazol-5-yl)phenyl]ethyl]pyrrolidine-2-carboxamide]	A (“A” indicates maximum degradation ≥75%)
< 50	> 10		Cc1ncsc1-c1ccc([C@H](C)NC(=O)[C@@H]2C[C@@H](O)CN2C(=O)[C@H](c2cc(-c3cnc(N4CCN(c5cc6nnc(-c7ccccc7O)cc6n5C)CC4)nc3)no2)C(C)C)cc1 [Compound 29, (2S,4R)-4-hydroxy-1-[(2S)-2-[3-(2-{4-[3-(2-hydroxyphenyl)-5-methylpyrrolo[3,2-c]pyridazin-6-yl]piperazin-1-yl}pyrimidin-5-yl)-1,2-oxazol-5-yl]-3-methylbutanoyl]-N-[(1S)-1-[4-(4-methyl-1,3-thiazol-5-yl)phenyl]ethyl]pyrrolidine-2-carboxamide]	A (“A” indicates maximum degradation ≥75%)
